# Patent publication US8092845B2, “Anti-inflammatory extract and agent and method for the production thereof” (Otkrytoe Aktsionernoe Obschestvo Zavod Ekologicheskoy …, priority 2004, dated 2012)
# Assays:
# [1] = test system: formalin-induced arthritis in rabbits; experiment: formalin-induced arthritis in rabbits (hematology and joint histology)
# Protocol: Experiments were carried out on 51 rabbits “Chinchilla” having a weight of 2800-3200 g. […] An arthritis model was caused by administration of 0.1 ml of a 2% formalin solution into the cavity of the knee joint—and a model of acute arthritis was obtained after twenty-four hours.
# The investigated agent and diclofenac were administered according to the following regimen: for preventive purposes 4 days prior to simulation of the arthritis on time per day intragastrically via a probe and on the 4th day 4 hours prior to the administration of formalin.
# Animals were euthanized under hexobarbital anesthesia after 3, 7 and 14 days after the induction of arthritis. Prior to beginning of the experiment and prior to euthanasia, blood was taken from the ear vein, and was used to determine hematologic parameters.
# For a pathomorphological study, the joints were extracted together with the surrounding tissues and fixed in 10% neutral formalin.
# peritonitis in rats = experiment: acute exudative inflammation (peritonitis) caused by intraperitoneal injection of acetic acid, rats; assay type: in vivo; conditions: 8 mg/kg
# Text: (§1) The evaluation of the anti-inflammatory activity for Boswellik has been carried out in a model of the acute inflammatory process—peritonitis—in rats and mice, caused by the intraperitoneal injection of acetic acid.
# [2] = test system: isolated human blood cells; experiment: in vitro synthesis of immunoglobulins by isolated human blood cells; assay type: cell-based
# nondescript mice = conditions: both, mouse, in vivo
# Protocol: Diclofenac was used for the comparison of the therapeutic activity of Boswellik. Studies were performed on both male and female nondescript mice after oral administration of the preparations.
# peritonitis in mice = experiment: acute exudative inflammation (peritonitis) caused by intraperitoneal injection of acetic acid, mice; assay type: in vivo; conditions: 8 mg/kg
# Text: as §1
# [3] = diclofenac 8 mg/kg, present agent 250 mg/kg
# [4] = diclofenac 8 mg/kg, present agent 250 mg/kg, all observation periods
compound,measurement,setting,value
O=C(O)Cc1ccccc1Nc1c(Cl)cccc1Cl [Diclofenac],"histological study of the joints, first observation",[1]; 3 days after the beginning (time printed for present agent only),inflammatory and destructive changes were observed
same,"histological study of the joints, 7 days",[1]; 7 days,articulate surfaces had uneven outlines
same,"histological study of the joints, 14 days",[1]; 14 days,surface of articulate cartilages was smoothed down
same,time until inflammatory process calmed down / destructive changes in articulate cartilages were reduced,"[1]; diclofenac 8 mg/kg (most of the animals), present agent 250 mg/kg",14 days
same,average content of hemoglobin in the erythrocyte,[1]; [3],decreased
same,number of monocytes,[1]; [3],not changed
same,number of erythrocytes and hemoglobin in the peripheral blood,"[1]; diclofenac 8 mg/kg, present agent 250 mg/kg, intragastric, vs initial level",substantially reduced
same,number of granulocytes,[1]; [4],increased
same,number of leukocytes,[1]; [4],insignificantly reduced
same,level of thrombocytes,"[1]; diclofenac 8 mg/kg, present agent 250 mg/kg, entire period of the study",decrease
same,hematocrit,"[1]; diclofenac 8 mg/kg, present agent 250 mg/kg, whole period of observation",reduced
same,influence on the volume of the inflammatory exudate in the abdominal cavity,"peritonitis in rats; compared with Boswellik 100 and 130 mg/kg, rats and mice",considerably weaker influence
same,Degree of the anti-exudative effect A = [Ro − Rk]/Rk100%,peritonitis in rats; rats,24%
same,Volume of the peritoneal exudate,"peritonitis in rats; rats, n = 10",3350 ± 220 µL
same,influence on the synthesis of immunoglobulins,[2],specific immunomodulating influence on the synthesis of immunoglobulins
same,safety index (ratio of ulcerogenicity/efficacy),nondescript mice,4.3-9.9
same,Degree of the anti-exudative effect A = [Ro − Rk]/Rk100%,peritonitis in mice,85%
same,Volume of the peritoneal exudate,peritonitis in mice; n = 10,37 ± 2 µL
